Source: publication PMC2628629 (Bioorganic & medicinal chemistry letters, 2008)

Target: E. coli MenE (Escherichia coli, UniProt P37353)
Test: MenE inhibition, coupled assay with MenE and MenB
Assay type: biochemical
Conditions: for Inhibition of MenE, result in words: inhibitor at up to 200 μM

Chain of E. coli MenE (P37353 whole entry): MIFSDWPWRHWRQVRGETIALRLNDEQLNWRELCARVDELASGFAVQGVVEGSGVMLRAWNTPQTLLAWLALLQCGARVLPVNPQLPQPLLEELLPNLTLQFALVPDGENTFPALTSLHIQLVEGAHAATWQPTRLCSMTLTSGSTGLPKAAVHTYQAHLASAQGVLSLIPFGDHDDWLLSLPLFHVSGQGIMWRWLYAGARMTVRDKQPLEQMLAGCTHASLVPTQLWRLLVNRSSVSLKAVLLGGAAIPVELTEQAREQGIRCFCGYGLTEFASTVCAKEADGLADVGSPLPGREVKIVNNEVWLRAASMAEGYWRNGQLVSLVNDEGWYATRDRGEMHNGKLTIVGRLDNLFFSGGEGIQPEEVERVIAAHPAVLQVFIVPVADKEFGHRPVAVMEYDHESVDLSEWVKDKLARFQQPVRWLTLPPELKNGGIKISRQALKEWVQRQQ

Compound | Inhibition of MenE, result in words | Kinetic analysis of MenE inhibition (mode of binding)
COC(=O)c1ccccc1C(=O)CCC(=O)NS(=O)(=O)OC[C@H]1O[C@@H](n2cnc3c(N)ncnc32)[C@H](O)[C@@H]1O [Compound 1, MeOSB-AMS] | effective inhibitors | 
COC(=O)c1ccccc1C(=O)CCC(=O)NS(=O)(=O)NC[C@H]1O[C@@H](n2cnc3c(N)ncnc32)[C@H](O)[C@@H]1O [Compound 2, MeOSB-AMSN] | effective inhibitors | 
COC(=O)c1ccccc1C(=O)CC/C=C/S(=O)(=O)NC[C@H]1O[C@@H](n2cnc3c(N)ncnc32)[C@H](O)[C@@H]1O [Compound 3, MeOSB-AVSN] |  | slow-binding inhibitor
